{
  "source": "paper PMC9157788",
  "about": "“Design, Synthesis, and Apoptosis-Promoting Effect Evaluation of Rhopaladins’ Analog 4-Arylidene-5-Oxopyrrolidine Derivatives” (Frontiers in Chemistry, 2022)",
  "key": {"HepG2 cells": {"test_system": "HepG2 cells", "test": "Wound healing assay, HepG2", "assay_type": "cell-based, human", "details": "48 h", "description": "The experimental procedures were performed according to conventional methods ([Kovaříková et al., 2014]). Hepatocarcinoma cells at the logarithmic growth stage were taken and inoculated into six-well plates with 2 × 10^4 cells/well. When the cell density is about 80%, the cell wound was scratched with pipette tips. Cells were then washed with PBS and added to the cell culture broth containing 1% serum with varying concentrations of RPDPRH (0 μM, 6.25, 12.5, and 25 μM) for 48 h. Pictures were taken at 0 and 48 h under a microscope (100×). Wound healing rate (%) = [(0 h scratch distance−48 h scratch distance)/0 h scratch distance] × 100%."}, "CaSki cells": {"test_system": "CaSki cells", "test": "MTT cell viability assay, CaSki", "assay_type": "cell-based", "details": "Homo sapiens, Ca-Ski, 48 h, read-out: Half inhibitory concentration (IC50), CaSki", "description": "HepG2 (human epidermoid hepatocellular carcinoma cell), 7402 (human epidermoid hepatocellular carcinoma cell), C-33A (human epidermoid cervical carcinoma cell), and HeLa (human epidermoid cervical adenocarcinoma cell) were incubated in Dulbecco’s modified Eagle’s medium (DMEM), which was purchased from Gibco (Grand Island, NY, United States). SiHa cells (human epidermoid cervical squamous cell carcinoma) were incubated in minimum essential medium (MEM, also from Gibco). CaSki (human epidermoid cervical carcinoma cell) and LO2 (human normal liver cell) were incubated in minimum essential medium (MEM, also from Gibco). All cells were maintained at 37°C in a humidified incubator with 5% carbon dioxide, and the media contained 10% fetal bovine serum (FBS, Corning, United States) and 1% penicillin–streptomycin antibiotic solution (Corning, United States). SiHa and CaSki were bought from the China Center for Type Culture Collection (CCTCC). The other five types of cancer cell lines were obtained from the Experiment Center of Medicine, Sinopharm Dongfeng Hospital, Hubei University of Medicine. The compounds were dissolved in dimethyl sulfoxide (DMSO, MP Biomedicals, United States), and cisplatin was purchased from Aladdin, Shanghai, China. The control (0 μM) group was treated with DMSO only in the same conditions, and the DMSO content in the medium was less than 0.1%.\nCell viability was measured by a 3-(4,5-dimethylthiazol-2-yl)-2,5-diphenyltetrazolium bromide (MTT, MultiSciences, China) assay. The specific experimental steps referred to our previous research ([Zhu et al., 2020]). For each cell line, cells were digested and seeded in 96-well plates at a density of 1 × 10^3 cells/well. […] Then, the formed formazan crystals were dissolved in DMSO, and the plates were estimated in a […] microplate reader (BioTek Inc., Bio-Tek MQX200) at a wavelength of 490 nm. Optical density (OD) values were obtained, and the inhibition rate and IC50 of each compound on different cells were calculated by GraphPad Prism 8.0.1 software. […]"}},
  "data": [
    {"smiles": "O=C1/C(=C/c2ccc(Cl)cc2)CC(/C=C/c2ccc(Cl)cc2)(C(=O)NC2CCCCC2)N1c1ccc(F)cc1", "note": "(stereo not drawn) [RPDPRH, (2E, 4E)-4-(4-chlorobenzylidene)-2-(4-chlorostyryl)-N-cyclohexyl-1-(4-fluorophenyl)-5-oxopyrrolidine-2-carboxamide]", "values": [
      {"measurement": "wound healing rate", "setting": "HepG2 cells; HepG2, 25 μM, vs DMSO control, p < 0.001", "result": "significantly decreased"},
      {"measurement": "wound healing rate", "setting": "HepG2 cells; HepG2, 6.25, 12.5 and 25 μM", "result": "significantly reduced"},
      {"measurement": "IC50", "setting": "CaSki cells", "result": 6.42, "unit": "µM"}
    ]}
  ]
}
